In experiment [1] the target is T1, FLAG-Avi-DDB1 and His-CDK12KD G731R/His-CCNKΔC (Homo sapiens, UniProt Q9NYV4, G731R).
T1 construct: Human CDK12KD (residues 715–1052); made in house; host or cells: Sf9 or High Five (CDK12KD/CCNKΔC, co-infected with yeast CAK1); 293F with BirA (FLAG-Avi-DDB1)
The experiment in a line: AlphaScreen assay, G731R. The note with it: for AlphaScreen: G731R, raw signal. In kind it is binding. On the procedure: Biotinylated FLAG-Avi-DDB1 (3 µM) and 6xHis-CDK12KD/6xHis-CCNKΔC (WT or G731E/R mutants) (3 µM) were mixed in an assay buffer (50 mM HEPES, pH7.5, 300 mM NaCl, 0.5 mM TCEP, 0.1% NP-40, 0.1% BSA) and a serial dilution of HQ461.The protein-compound mix was transferred to 384-well plates (Corning, Corning, USA); 15 μL per well. After a 1 hr room temperature incubation, 10 µL of nickel chelate (Ni-NTA) acceptor beads (PerkinElmer, Waltham, USA, Waltham, USA, 6760619C) (1:100 diluted with assay buffer) was added per well. After incubation in the dark for 1 hr at room temperature, 10 μL of streptavidin donor beads (PerkinElmer, Waltham, USA, 6760619C) (1:100 diluted in assay buffer) was added per well. After another 1 hr incubation, AlphaScreen signal was measured on the EnVision multimode plate reader (PerkinElmer, Waltham, USA). For THZ531 competition, FLAG-Avi-DDB1, 6xHis-CDK12KD/6xHis-CCNKΔC mix was preincubated with 5 μM of THZ531 for 30 min on ice followed by the procedures described above.

The next experiment addresses T2, DDB1ΔBPB (Homo sapiens, UniProt Q16531, DEL400-704).
T2 construct: Strep-tag (N); 8xHis (N); made in house; host or cells: Sf9
Kind of experiment: Differential Scanning Fluorimetry (DSF), DDB1ΔBPB. The format is binding. The note with it: 50 µM HQ461. As to the method:
CDK12KD/CCNKΔC (WT or G731E/R) and DDB1ΔBPB were diluted to 5 μM with DSF assay buffer (50 mM HEPES pH 7.5, 300 mM NaCl, 0.5 mM TCEP). 50 µM HQ461 or 10 µM HBx was added to diluted proteins (final DMSO concentration 0.25%). Twenty µL of protein-compound mix was aliquoted per qPCR tube (Labtidebiotech, Shanghai, China, P01-0803E) followed by the addition of 5 µL of 1:400 diluted SYPRO Orange (Sigma-Aldrich, MO, USA, S5692). After incubation on ice for 20 min, fluorescence measurements were performed using a Bio-Rad CFX96 Realtime PCR instrument. During the DSF experiment, the temperature was increased from 10°C to 95°C at an increment of 0.5 °C with equilibration time of 10 s at each temperature prior to measurement. Tm was defined as the temperature corresponding to the maximum value of the first derivative of fluorescence transition.
Background: DSF heats the sample and reads unfolding from a dye or from intrinsic fluorescence.

Experiment [2] concerns POLII CTD Serine 2 phosphorylation. The experiment in a line: Western blotting of POLII CTD Serine 2 phosphorylation. The format is cell-based, Homo sapiens. On the procedure:
Standard SDS-PAGE and western blotting procedures were used with the following modifications. For preparation of total lysates, cells were rinsed with DPBS to remove residual medium and then lysed in 20 mM HEPES-NaOH, pH 8.0, 10 mM NaCl, 2 mM MgCl2, 1% SDS freshly supplemented with 0.5 units/µL of benzonase and 1x cOmplete, Mini, EDTA-free protease inhibitor cocktail (Roche, Bazel, Switzerland). Protein concentrations of the resulting lysates were quantified by the BCA method. Between 30 to 60 µg of proteins were resolved on SDS-PAGE and transferred to nitrocellulose membranes with a pore size of 0.5 μm. Membranes were blocked in 5% nonfat milk PBST (0.1% v/v Tween-20) for 30 min before blotting with antibodies. […]
A general note: In western blotting, separated proteins are transferred to a membrane and probed.

Several values for one entry are separate records, joined by “and”; a condition that tells them apart may be missing. Equal values may be shown once.

T1 sequence (Q9NYV4 715-1052 G731R limits assumed): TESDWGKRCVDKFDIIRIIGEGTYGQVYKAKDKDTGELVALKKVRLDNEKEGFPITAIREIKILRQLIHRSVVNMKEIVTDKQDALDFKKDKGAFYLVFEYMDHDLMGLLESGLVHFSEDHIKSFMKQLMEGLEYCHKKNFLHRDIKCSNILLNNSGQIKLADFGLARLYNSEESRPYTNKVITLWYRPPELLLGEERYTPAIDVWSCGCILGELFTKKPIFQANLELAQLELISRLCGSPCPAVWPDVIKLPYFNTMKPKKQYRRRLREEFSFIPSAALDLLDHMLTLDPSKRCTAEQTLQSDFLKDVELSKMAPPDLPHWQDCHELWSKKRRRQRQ
T1 sequence (O75909 11-267 partner limits assumed): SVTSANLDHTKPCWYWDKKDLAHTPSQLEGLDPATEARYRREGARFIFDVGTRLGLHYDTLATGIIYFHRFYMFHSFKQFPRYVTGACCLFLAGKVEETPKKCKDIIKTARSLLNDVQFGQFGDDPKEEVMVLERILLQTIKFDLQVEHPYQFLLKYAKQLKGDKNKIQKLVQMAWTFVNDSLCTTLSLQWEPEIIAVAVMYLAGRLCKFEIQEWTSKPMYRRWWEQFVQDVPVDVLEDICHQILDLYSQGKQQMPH
T2 sequence (Q16531 with tags, fused parts or gaps DEL400-704): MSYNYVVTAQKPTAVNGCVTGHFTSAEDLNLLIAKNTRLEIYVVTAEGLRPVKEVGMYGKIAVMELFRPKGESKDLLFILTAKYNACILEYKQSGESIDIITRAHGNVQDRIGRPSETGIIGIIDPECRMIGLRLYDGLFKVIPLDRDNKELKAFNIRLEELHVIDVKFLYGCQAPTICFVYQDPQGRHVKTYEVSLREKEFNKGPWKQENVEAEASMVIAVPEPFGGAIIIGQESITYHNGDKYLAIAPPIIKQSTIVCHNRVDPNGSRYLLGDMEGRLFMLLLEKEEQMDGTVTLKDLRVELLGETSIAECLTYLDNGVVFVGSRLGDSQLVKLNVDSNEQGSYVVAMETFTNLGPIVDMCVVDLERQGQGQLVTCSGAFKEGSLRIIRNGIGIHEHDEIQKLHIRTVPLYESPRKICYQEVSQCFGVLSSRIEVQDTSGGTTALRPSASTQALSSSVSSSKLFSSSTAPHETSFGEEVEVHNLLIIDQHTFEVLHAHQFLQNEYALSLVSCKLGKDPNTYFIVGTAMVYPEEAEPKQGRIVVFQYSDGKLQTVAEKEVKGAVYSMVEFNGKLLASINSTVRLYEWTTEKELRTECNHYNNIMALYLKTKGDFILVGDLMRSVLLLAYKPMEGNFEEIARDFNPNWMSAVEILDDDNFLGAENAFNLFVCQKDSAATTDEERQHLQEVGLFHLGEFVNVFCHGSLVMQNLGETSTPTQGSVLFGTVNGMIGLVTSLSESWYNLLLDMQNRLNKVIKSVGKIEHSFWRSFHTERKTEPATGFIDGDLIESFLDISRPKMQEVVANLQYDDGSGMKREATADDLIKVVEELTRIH

Consider `Cc1cccc(Nc2nc(CC(=O)Nc3ncc(C)s3)cs2)n1` [HQ461, 2-(2-((6-methylpyridin-2-yl)amino)thiazol-4-yl)-N-(5-methylthiazol-2-yl)acetamide], for which the AlphaScreen was 1045 and 1023 and 975 in experiment [1] (HQ461 2.22e-6 M); 1107 and 1087 and 1018 in experiment [1] (HQ461 6.67e-6 M); 1057 and 1369 and 1206 in experiment [1] (HQ461 2e-5 M); 1123 and 959 and 996 in experiment [1] (HQ461 2.47E-07 M); 1124 and 1117 and 796 in experiment [1] (HQ461 2.74E-08 M); 1008 and 1006 and 1085 in experiment [1] (HQ461 7.41E-07 M). Besides, the AlphaScreen in experiment [1] (HQ461 8.23E-08 M) is 1162 and 1262 and 828. The “complex formation with DDB1, G731R mutant” value in experiment [1] (even with 20 µM of HQ461) is reported as “did not form a complex with DDB1”. On DDB1ΔBPB, the “thermal stability of DDB1ΔBPB” value is “did not change the thermal stability”. For the same compound, the “inhibitory effect on POLII CTD Serine 2 phosphorylation” value in experiment [2] (A549 with CDK12 G731E or G731R mutation) was “abolished”. The “POLII CTD Serine 2 phosphorylation” value in experiment [2] (parental A549) was “reduced POLII CTD Serine 2 phosphorylation”.

These data come from article PMC7462607 (eLife, 2020).
